Reference: patent US20140357713A1, “ANTIMICROBIAL COMPOUNDS AND METHODS OF USE” (NexMed Holdings, Inc., priority 2012, published 2014)
Converted amounts (≈) assume the structure as drawn. Read-outs that look alike come from different tables or passages of the source.

Assays:
Experiment in all cases: Minimum inhibitory concentration (MIC) assay, Example 33
[1] = system: Escherichia coli (ATCC 25922); format: cell-based; settings: Escherichia coli, read-out: MIC E. coli
Method: (§1) Thirty compounds were tested for antimicrobial activity using standard procedures and standard strains for both the minimum inhibitory concentration (MIC) assay and a time kill study. Both the MIC assay and the time kill study were performed according to Clinical and Laboratory Standards Institute (CLSI) guidelines. Three bacteria strains, Escherichia coli (ATCC 25922), Pseudomonas aeruginosa (ATCC 27853), Staphulococcus aureus (ATCC 29213), and two fungus strains, Candida albicans (ATCC 90029) and Aspergillus niger (CMCC 98003), were used in the experiments.
(§2) Preparation of cultures. Before the experiment, two days for the bacteria strains and five days for fungus strains, an aliquot was removed from the cultures frozen at −80° C. Medium was added to the surface of an appropriate agar plate and streaked with the aliquot. The plate was incubated for 20 to 24 hrs at 35±2° C. for bacteria or for 5 days at 26-30° C. in incubator for fungus. From the resulting growth on each plate, one isolated colony of similar morphology was selected and re-streaked onto a fresh agar plate using a sterile disposable loop. The plate was incubated 20 to 24 hrs at 35±2° C. or for 5 days at 26-30° C. in an incubator.
(§3) Preparation of Assay Plates with Medium and Drugs. On the day of the assay, CAMHB medium or RPMI 1640 medium was removed from 4′C storage and allowed to reach room temperature. Ninety microliters (μL) of room temperature CAMHB or RPMI 1640 (supplemented with the appropriate concentration of DMSO, if required) were added to rows B-G of each 96-well microtiter plate. Using a pipette, duplicate 180 μL aliquots of each drug stock solution were added to column 1 (e.g. A1 and B1 or C1 and D1 or E1 and F1 or G1 and H1). Using a multichannel pipette or the Provision 2000 liquid handler, serial 2-fold dilutions (90 μL) were performed in each row across the plate to row G. Eighty μL of compounds dilutions were transferred to a 96-deep well plate. Medium, 1,520 μL of CAMHB or RPMI 1640, was added to each well. The contents of the wells were mixed thoroughly. A 50 μL aliquot of each of the resulting mixtures was transferred to a 96-well assay plate.
(§4) For bacteria, a sterile inoculating loop was used to transfer growth from an agar plate culture into about 5 mL of test medium. Using a turbidity meter, this inoculum was adjusted so that its density (600 nm) was equivalent to a 0.5 McFarland barium sulfate standard (0.08-0.13). The resulting suspension was diluted 1:100 into medium to obtain two times test inoculums.
(§5) For Aspergillus niger, sporulating colonies were covered with RPMI 1640, and a suspension was prepared by gently probing the colonies with the tip of a transfer pipette. The suspension was transferred to a sterile tube and mixed with a vortex mixer for 15 seconds. The densities at 530 nm were adjusted to 0.09-0.13 for each sample. The resulting suspension was diluted 1:50 with the medium to obtain two times test inoculums. Fifty μL/well of this inoculum suspension was added to wells of drug-containing plates (1:2 dilution). Plates were incubated at 35° C. for the appropriate times. The MIC was read and recorded according to CLSI guidelines.
(§6) The MIC values for thirty compounds against Escherichia coli, Pseudomonas aeruginosa, Staphulococcus aureus, Candida albicans, and Aspergillus niger were recorded and are presented in Table 3 and Table 4.

[2] = system: Pseudomonas aeruginosa (ATCC 27853); format: cell-based; settings: Pseudomonas aeruginosa, read-out: MIC P. aeruginosa
Method: as §1, §2, §3, §4, §5, §6

[3] = system: Staphulococcus aureus (ATCC 29213); format: cell-based, Staphylococcus aureus; settings: Staphylococcus aureus, read-out: MIC S. aureus
Method: as §1, §2, §3, §4, §5, §6

[4] = system: Candida albicans (ATCC 90029); format: cell-based
Method: as §1, §2, §3
For Candida albicans, a sterile inoculating loop was used to transfer growth from an agar plate culture into a tube with RPMI1640 medium. This inoculum was adjusted so that its density at 530 nm was in the ranges from 0.08 to 0.13. The resulting suspension was diluted 1:50 and further diluted 1:20 with the medium to obtain two times test inoculums.
as §5, §6

[5] = system: Aspergillus niger (CMCC 98003); format: cell-based
Method: as §1, §2, §3, §5, §6

MIC ([1]; ATCC25922, n = 1) [mg/L]	MIC ([1]; ATCC25922, n = 2) [mg/L]	MIC ([2]; ATCC27853, n = 1) [mg/L]	MIC ([2]; ATCC27853, n = 2) [mg/L]	MIC ([3]; ATCC29213, n = 1) [mg/L]	MIC ([3]; ATCC29213, n = 2) [mg/L]	MIC Candida albicans ([4]; n = 1) [mg/L]	MIC Candida albicans ([4]; n = 2) [mg/L]	MIC Aspergillus niger ([5]; n = 1) [mg/L]	MIC Aspergillus niger ([5]; n = 2) [mg/L]	SMILES
2 (≈ 3.42 µM)	2 (≈ 3.42 µM)	2 (≈ 3.42 µM)	2 (≈ 3.42 µM)	2 (≈ 3.42 µM)	2 (≈ 3.42 µM)					NCC[C@H](O)C(=O)N[C@@H]1C[C@H](N)[C@@H](O[C@H]2O[C@H](CN)[C@@H](O)[C@H](O)[C@H]2O)[C@H](O)[C@H]1O[C@H]1O[C@H](CO)[C@@H](O)[C@H](N)[C@H]1O [Amikacin, reference compound]
						0.5 (≈ 0.541 µM)	0.5 (≈ 0.541 µM)	2000 (≈ 2160 µM)	2000 (≈ 2160 µM)	C[C@@H]1[C@H](O)[C@@H](C)/C=C/C=C/C=C/C=C/C=C/C=C/C=C/[C@H](O[C@@H]2O[C@H](C)[C@@H](O)[C@H](N)[C@@H]2O)C[C@@H]2O[C@](O)(C[C@@H](O)C[C@@H](O)[C@H](O)CC[C@@H](O)C[C@@H](O)CC(=O)O[C@H]1C)C[C@H](O)[C@H]2C(=O)O [Amphotericin B, reference compound]
0.5 (≈ 0.915 µM)	0.5 (≈ 0.915 µM)	2 (≈ 3.66 µM)	2 (≈ 3.66 µM)	8 (≈ 14.6 µM)	16 (≈ 29.3 µM)					CC(C)(O/N=C(\C(=O)N[C@@H]1C(=O)N2C(C(=O)[O-])=C(C[n+]3ccccc3)CS[C@H]12)c1csc(N)n1)C(=O)O [Ceftazidime, reference compound]
